Assay results: patent publication US20260174707A1, “USE OF GNRH ANTAGONIST IN REGULATION AND CONTROL OF ESTRUS OF MAMMAL” (priority 2022, published 2026)
Marks after values point to notes of the source that are not given here. Where a SMILES comes first, the peptide text is derived from it. [ ]: non-standard residue; d: D form. The star is where a group is joined. dPhe(4-NHCONH2) = NC(=O)Nc1ccc(C[C@@H](N)C(=O)O)cc1; Dihydroorotyl(S) = O=C1C[C@@H](C(=O)*)NC(=O)N1; dPhe(4-Cl) = N[C@H](Cc1ccc(Cl)cc1)C(=O)O; Phe(4-NH2) = Nc1ccc(C[C@H](N)C(=O)O)cc1; d2Nal = N[C@H](Cc1ccc2ccccc2c1)C(=O)O; Lys(iPr) = CC(C)NCCCC[C@H](N)C(=O)O; d3Pal = N[C@H](Cc1cccnc1)C(=O)O

Columns and labels:
Format in all cases: in vivo
[1] = tested on: gilts; assay: Oestrus synchronization of gilts (inhibitor, then PMSG); conditions: 1,000 units PMSG im on 20th day
Description: Comparison of experiments of administering Degarelix and altrenogest in achieving oestrus synchronization in gilts was performed. Twelve healthy adult gilts were selected and divided into two groups, namely an altrenogest group and a Degarelix group, with 6 gilts in each group. Among them, gilts in the altrenogest group were fed 20 mg of altrenogest every day for 18 consecutive days, while gilts in the Degarelix group were intramuscularly injected with 15 μg/kg body weight of Degarelix only on the first day. Both groups of gilts were intramuscularly injected with 1,000 units of PMSG on the 20th day after the first administration, then test whether the gilts in different treatment groups can achieve the estrus synchronization.

[2] = tested on: male dogs; assay: Inhibiting effect on male dogs (serum testosterone, scrotum circumference, sexual behavior); conditions: 1.5 mg/kg subcutaneous
Description: Adult healthy male dogs with normal reproductive capacity were selected and divided into an experimental group and a control group. Each group of the animals was treated with subcutaneous injections, male dogs in the control group were injected with normal saline, and male dogs in the experimental group were injected with 1.5 mg/kg body weight of Degarelix, the treated animals in each group were fed and observed in the same way. Blood was collected from the animals regularly to measure and record the concentration of testosterone in serum (blood was collected and detected before the injection of drugs, and 1 h, 2 h, 4 h, 6 h, 8 h, 24 h, 48 h, 72h, 120 h and 168 h after the injection of drugs, and after that, the blood was collected every 168 h (1 week) until the end of the experiment), and scrotum circumference of male animals was measured and recorded regularly, sexual behavior of the male animals was observed and recorded, and compared with that of male animals in the control group.

[3] = tested on: female mice; assay: Oestrus synchronization of female mice (Degarelix, then PMSG and HCG); conditions: 1.0 mg/kg sc; 5 units PMSG ip on 14th day; 5 units HCG ip after 46 hours
Description: It was discovered from the oestrus inhibition experiments that a dose of 1.0 mg/kg can inhibit oestrus of female mice for at least 15 days. Six 6-week-old female mice were selected for further oestrus synchronization experiments. The specific method was as follows: the female mice were subcutaneously injected 1.0 mg/kg of Degarelix, and intraperitoneally injected 5 units of PMSG on the 14th day after administration, and intraperitoneally injected 5 units of HCG after 46 hours, and then the oestrus of the female mice was detected.

[4] = tested on: sowpigs; assay: Oestrus inhibition in sowpigs (oestrus performance observed); conditions: intramuscular injection once
Description: Thirty healthy adult sowpigs were selected and divided into a control group and Degarelix experimental groups, with 6 sowpigs in each group. The four Degarelix experimental groups were intramuscularly injected with different doses of Degarelix, namely 10 μg/kg body weight, 20 μg/kg body weight, 40 μg/kg body weight and 160 μg/kg body weight, respectively. The control group was intramuscularly injected with normal saline, and the oestrus performance (e.g., vulva performance and static reaction) of the sowpigs was observed and recorded to determine whether the sowpigs were in oestrus, and the time to restore oestrus after administration was recorded.

[5] = tested on: female mice; assay: Oestrus inhibition in female mice (daily vaginal smear); conditions: only subcutaneous injection once
Description: Twenty-four 6-week-old female mice were selected and divided into 4 groups, with 6 mice in each group. The female mice in the negative control group were subcutaneously injected with normal saline, the female mice in the Abarelix group were subcutaneously injected with a dosage of 2 mg/kg/day for 8 consecutive days, the female mice in the Cetrorelix group were subcutaneously injected with a dosage of 2 mg/kg/day for 8 consecutive days, and the female mice in the Degarelix group were subcutaneously injected once with a dose of 2 mg/kg. After administration, vaginal smear experiments were performed on female mice every day to detect the stage of the oestrus cycle of female mice in each group. […] Thirty-two 6-week-old female mice were selected and divided into 4 groups, with 8 mice in each group. The female mice in the negative control group were subcutaneously injected with normal saline, and the female mice in the three Degarelix groups were subcutaneously injected with different dosages (0.4 mg/kg, 0.6 mg/kg and 1.0 mg/kg) of Degarelix once. After administration, vaginal smear experiments were performed on female mice every day to detect the oestrous condition.

[6] = tested on: female dogs; assay: Inhibiting effect on female dogs in proestrus; conditions: 1.5 mg/kg subcutaneous
Description: Healthy female dogs in proestrus (the proestrus period was less than 3 days) were selected and divided into an experimental group and a control group. Each group of the animals was treated with subcutaneous injections, the female dogs in control group were injected with normal saline, and the female dogs in experimental group were injected with 1.5 mg/kg body weight of Degarelix, each group of the treated animals was fed and observed in the same way to detect the oestrus of the female dogs.

[7] = gilts fed 20 mg every day for 18 days
[8] = gilts, 15 μg/kg im only on first day

| SMILES | Days after PMSG injection on which gilts were in oestrus [1, 7] | Number of days over which gilts were concentrated in oestrus [1, 7] [days] | Oestrus of all gilts after administration of exogenous hormones [1, 7] | Days after PMSG injection on which gilts were in oestrus [1, 8] | Number of days over which gilts were concentrated in oestrus [1, 8] [days] | Oestrus of all gilts after administration of exogenous hormones [1, 8] | Sexual behaviour [2] | Scrotal circumference ([2]; after a period of treatment) | Erection and semen collection ([2]; after treatment) | Testosterone concentration in serum ([2]; compared to control group) | Days on which female mice were concentrated in oestrus [3] | Time to restore oestrus after administration ([4]; 10 μg/kg) | Time to restore oestrus after administration ([4]; 20 μg/kg) | Time to restore oestrus after administration ([4]; 40 μg/kg) | Time of inhibiting oestrus ([5]; low dose 0.4 mg/kg) | Time of inhibiting oestrus ([5]; middle dose 0.6 mg/kg) | Oestrus stage by vaginal smear [6] | Oestrus symptoms (vulvar redness and swelling, vaginal discharge of mucus) [6] |
| --- | --- | --- | --- | --- | --- | --- | --- | --- | --- | --- | --- | --- | --- | --- | --- | --- | --- | --- |
| C=CC[C@]1(O)CC[C@H]2[C@@H]3CCC4=CC(=O)CCC4=C3C=C[C@@]21C [altrenogest] | 3rd day to the 6th day | 4 | in oestrus within one week | – | – | – | – | – | – | – | – | – | – | – | – | – | – | – |
| CC(=O)N[C@H](Cc1ccc2ccccc2c1)C(=O)N[C@H](Cc1ccc(Cl)cc1)C(=O)N[C@H](Cc1cccnc1)C(=O)N[C@@H](CO)C(=O)N[C@@H](Cc1ccc(NC(=O)[C@@H]2CC(=O)NC(=O)N2)cc1)C(=O)N[C@H](Cc1ccc(NC(N)=O)cc1)C(=O)N[C@@H](CC(C)C)C(=O)N[C@@H](CCCCNC(C)C)C(=O)N1CCC[C@H]1C(=O)N[C@H](C)C(N)=O [Degarelix] (Ac-[d2Nal][dPhe(4-Cl)][d3Pal]S[Phe(4-NH2)](Dihydroorotyl(S))[dPhe(4-NHCONH2)]L[Lys(iPr)]P[dA]-NH2) | – | – | – | 3rd to the 5th day | 3 | in oestrus within one week | significantly reduced | significantly reduced | abnormal erections and no semen could be collected | decreased significantly | 17th and 18th days | 21.50 ± 2.45^b days | 38.83 ± 2.37^c days | 53.83 ± 3.16^d days | 7.13 ± 2.09^b days | 8.50 ± 3.54^bc days | quickly changed from proestrus to diestrus | gradually disappeared 3 days after the injection |
